# From patent US20120219636A1, “ENHANCED REMOVAL OF VIRUSES FROM FRESH PRODUCE” (THE OHIO STATE UNIVERSITY, priority 2011, published 2012)
# Like-named read-outs stand apart in the source and are kept apart here.
# Columns and labels:
# [1] = tested on: VSV; assay type: cell-based, vesicular stomatitis virus (VSV) Indian strain
# [2] = tested on: MNV-1; experiment: Transmission electron microscopy of purified MNV-1 after surfactant treatment; set-up: species or system murine norovirus
# [3] = tested on: MNV-1; experiment: Sanitization wash of MNV-1 inoculated fresh produce, viral survivors by plaque assay; set-up: species or system murine norovirus; settings: for virus reduction: 2 min wash
# [4] = tested on: VSV; set-up: species or system vesicular stomatitis virus (VSV) Indian strain; settings: 10,000 ppm; 37° C.; 72 hours
# [5] = tested on: MNV-1; assay type: cell-based, murine norovirus
# [6] = tested on: foodborne viruses; settings: cited from earlier work
# [7] = 200 ppm surfactant, 37° C., 72 hours
molecule,measurement,setting,value
Tween 20,virus reduction,[1]; [7],2.7 logs
"CCCCCCCCCCCCOS(=O)(=O)[O-].[Na+] [SDS, sodium dodecyl sulfate]",virus reduction,[1]; [7],7.5 logs
same,virus reduction,"[1]; 200 ppm, 37° C., 4 hours",5 logs
same,virus inactivation confirmed by plaque assay,"[1]; purified VSV, 10,000 ppm, 37° C., 72 hours",completely inactivated
same,damage to MNV-1 virus particles (electron microscopy),[2],outer capsid of the MNV-1 was severely damaged and aggregated
same,enhancement of efficiency of virus reduction over traditional sanitizers (chlorine solution alone),[3]; fresh produce,100 fold
same,virus reduction,"[3]; lettuce, 50 ppm surfactant alone",2.26 logs
same,virus reduction,"[3]; raspberries, 50 ppm surfactant alone",2.63 logs
same,virus reduction,"[3]; strawberries, 50 ppm surfactant alone, room temperature",3.14 logs
same,virus reduction,"[3]; strawberries, 100 ppm SDS alone",3.41 logs
same,virus reduction,"[3]; strawberries, 200 ppm SDS alone",3.12 logs
same,virus reduction,"[3]; strawberries, 1,000 ppm SDS alone",3.51 logs
same,damage to VSV virus particles (electron microscopy),[4],viral envelope was damaged and the shape of VSV was severely distorted
same,virus inactivation confirmed by plaque assay,[5],completely inactivated
same,reduction in MNV-1 titer,"[5]; 1,000 ppm surfactant, 37° C., 72 hours",highest reduction in MNV-1 titer
same,virus reduction,"[5]; 10,000 ppm surfactant, 37° C., 72 hours",almost completely inactivated
CC(=O)OO [peracetic acid],additional reduction over tap water washing,[6],0.77 logs
NP40,virus reduction,[1],10. logs
same,virus reduction compared with tap water or chlorine solution,"[3]; four types of fresh produce, 50 ppm surfactant alone",increased virus reduction than did tap water or chlorine solution
OCl [sodium hypochlorite],additional virus reduction over tap water washing,[6],0.48 logs
same,virus reduction,[6],less than 1 log
Triton X-100,virus reduction,[1]; [7],6.7 logs
same,additional virus reduction than that of the chlorine solution,[3],~1 log
